The test system of this assay is BT-549 breast. The experiment in a line: growth of human tumour cells (NCI), 48 h.

Values joined by “and” are separate entries in the source; they are usually repeats but may differ in a detail not shown here. Equal entries are not always repeated.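 1) Cells in 96-well plates. 2) Compound, 48 h, 5 concentrations. 3) Linear interpolation between surrounding doses. 4) Unreached endpoint = highest concentration. GI50 marks 50% less growth. At the TGI there is no net growth.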

Turning to `C=CC(=O)N1CCN(c2ccc3cccc(NC(=O)c4cnc(C)cn4)c3n2)CC1`, the GI50 was 2.31 µM and the TGI was determined as 21.6 µM.

Regarding `CC(C)CC(CC1=CCC2CC1C2(C)C)C1=C(O)C(C)(C)C(=O)C(C)(C)C1=O` (stereo not drawn), the GI50 was 0.413 µM and the TGI is 4.37 µM.

As to `Cc1cc(N/N=C/c2nc(-c3ccc(Br)cc3)oc2C)c2cc(Cl)ccc2n1`, the GI50 is over 100 µM and the TGI is over 100 µM.

Take `COc1ccc(C2CC(c3cc(OC)c(OC)c(OC)c3)=NN2C(C)=O)cc1OCC(=O)Nc1nc2ccc(C(F)(F)F)cc2s1` (stereo not drawn): the GI50 is 3.55 µM and the TGI amounted to 82 µM.

For the compound `O=S(=O)(NCCNC/C=C/c1ccc(Br)cc1)c1cccc2cnccc12`, the GI50 is 3.09 µM and 7.89 µM; the TGI is 12.7 µM and 21.6 µM.

On to `CCN(C(=O)N1CCN(c2cc3c(cc2F)c(=O)c(C(=O)O)cn3C2CC2)CC1)c1nc(-c2ccc(C)cc2)cs1`, for which the GI50 is 0.336 µM and the TGI came out at 1.56 µM.

Regarding `O=[N+]([O-])c1cccc(-c2nc3sccn3c2-c2ccnc(NCCCNS(=O)(=O)c3cccc(F)c3)n2)c1`, the GI50 is 2.18 µM and the TGI turned out to be 11.9 µM.

For `O=c1[nH]c2ccccc2nc1-c1c[nH]c2ccccc12`, the GI50 was over 100 µM and the TGI was over 100 µM.

For the compound `CN1CCN(Cc2ccc(NC(=O)c3cncc(C#Cc4cnc(N)c5ccncc45)c3)cc2C(F)(F)F)CC1`, the GI50 was 2.22 µM and the TGI is over 46.6 µM.

In the case of `CCCn1c(C)nc2c1C(=O)c1ccccc1C2=O`, the GI50 was 31.4 µM and the TGI is over 100 µM.

With `O=C1C(=O)c2c(nc3ccc(Cl)cn23)-c2ccccc21`, the GI50 is 0.502 µM and the TGI turned out to be 1.21 µM.

Turning to `Cc1ccc(C(=O)Nc2cccc(C(F)(F)F)c2)cc1Nc1nc(-c2cccnc2)nc2c1cnn2C`, the GI50 is 4.12 µM and 2.86 µM; the TGI was 14.5 µM and 8.91 µM.

As for `COc1cc2c(cc1OCCCCOc1cc3c(cc1OC)C(=O)N1CCC[C@H]1CN3)N=C[C@@H]1CCCN1C2=O`, the GI50 was 0.357 µM and the TGI was 5.75 µM.

Regarding `c1ccc2c(c1)c(NCCCCN1CCCCC1)cc1c3ccccc3c(NCCCCN3CCCCC3)cc21`, the GI50 is 20.7 µM and the TGI amounted to 45.2 µM.

Regarding `O=C(/C(=C/c1ccc([N+](=O)[O-])cc1)c1ccccc1)c1ccccc1`, the GI50 is 2.57 µM and the TGI is 7.12 µM.

Take `Cc1cc2c3ccc(C)[n+](C)c3ccc2n1C`: the GI50 is 2.27 µM and the TGI was 13.1 µM.

As to `O=C(C1CCCCC1)[C@@H]1[C@]2(C(=O)NC3CCCCC32)[C@@H]2CCCN2[C@@]12C(=O)NC1CCC(Cl)CC12` (stereo partly drawn), the GI50 was 145 µM and the TGI stood at 286 µM.

As for `COc1ccc2cc(-c3ccoc(=O)c3-c3cc(OC)c(OC)c(OC)c3)ccc2c1`, the GI50 was 0.232 µM and the TGI is over 100 µM.

For `CCN1CCC(CCOC)(CN2c3ccccc3Sc3ccc(Cl)cc32)C1` (stereo not drawn), the GI50 was 1.88 µM and the TGI was determined as 3.68 µM.

`O=C(c1ccccc1)C(CN1CCOCC1)c1ccccc1` (stereo not drawn): the GI50 is 1.48 µM and the TGI was determined as 3.77 µM.

For the compound `C/C(=N\Nc1ccc2ccccc2n1)c1ccccn1`, the GI50 is 0.256 µM and the TGI stood at 16.6 µM.

On to `COc1cc2nc(N3CCCC3)nc(NCC3CCCCC3)c2cc1OC`, for which the GI50 is 1.41 µM and the TGI is 2.78 µM.

In the case of `N/C(=N\N=C\c1ccc(-c2ccccc2)cc1)N[N+](=O)[O-]`, the GI50 was 17.1 µM and the TGI was over 100 µM.

As for `C=CC(=O)N(C)[C@H]1C[C@H]2OC(C)(C1OC)n1c3ccccc3c3c4c(c5c6ccccc6n2c5c31)C(=O)NC4` (stereo partly drawn), the GI50 is 0.0963 µM and the TGI came to 0.553 µM.

For the compound `CC(CN1CCN(CCOCCO)CC1)CN1c2ccccc2Sc2ccc(Cl)cc21` (stereo not drawn), the GI50 was 2.45 µM and the TGI came out at 6.67 µM.

As for `Nc1ncnc2[nH]ncc12`, the GI50 is 1.98 µM and the TGI is 74.9 µM.

Consider `CC(C)(C)c1n[nH]c(=S)n(/N=C/c2ccc(F)c(Oc3ccccc3)c2)c1=O`, for which the GI50 is 34.5 µM and the TGI was found to be 94.5 µM.

Turning to `C[C@]12CC[C@H]3[C@@H](CCC4=CC(=O)CC[C@@H]43)[C@@H]1CC[C@@H]2OC(=O)CCc1ccccc1`, the GI50 is 17.5 µM and the TGI was determined as 33.9 µM.

In the case of `C=C1CC[C@@H]2[C@](C)(COC(C)=O)[C@@H](O)CC[C@@]2(C)[C@@H]1COc1ccc2ccc(=O)oc2c1`, the GI50 is 47.8 µM and the TGI is over 100 µM.

Values taken from PubChem BioAssay (NCI).
